# How the values were obtained:
# Type in all cases: in vivo
# [1] = tested on: barnyardgrass (Echinochloa crus-galli); test: Test A preemergence soil spray, visual injury rating 0-100; conditions: 10 days
# Procedure, shortened: (§1)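 Visual injury, scored 0-100 (100 = complete control) against untreated plants, 10 days after greenhouse treatment. Test chemicals in surfactant-containing non-phytotoxic solvent were applied in loam soil and sand, as a preemergence soil spray on seeds or postemergence to plants at the one- to two-leaf stage.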
# [2] = tested on: ragweed (common ragweed, Ambrosia artemisiifolia); test: as above; conditions: 10 days
# Procedure, shortened: as §1
# [3] = tested on: palmer (palmer amaranth, palmer pigweed, Amaranthus palmeri); test: as above; conditions: 10 days
# Procedure, shortened: as §1
# [4] = tested on: green foxtail (Setaria viridis); test: as above; conditions: 10 days
# Procedure, shortened: as §1
# kochia (Bassia scoparia) [5] = test: as above; conditions: 10 days
# Procedure, shortened: as §1
# corn (Zea mays) [6] = test: as above; conditions: 10 days
# Procedure, shortened: as §1
# [7] = tested on: wheat (Triticum aestivum); test: as above; conditions: 10 days
# Procedure, shortened: as §1
# soybean (Glycine max) [8] = test: as above; conditions: 10 days
# Procedure, shortened: as §1
# [9] = tested on: ryegrass, Italian (italian ryegrass, Lolium multiflorum); test: as above; conditions: 10 days
# Procedure, shortened: as §1
# [10] = tested on: blackgrass (Alopecurus myosuroides); test: as above; conditions: 10 days
# Procedure, shortened: as §1
# [11] = tested on: oat, wild (wild oat, Avena fatua); test: as above; conditions: 10 days
# Procedure, shortened: as §1
# [12] = tested on: ducksalad (Heteranthera limosa); test: Test B flooded paddy test, visual plant response rating 0-100; conditions: 250 g ai/ha, Flood, applied to paddy water, evaluated after 13 days
# Procedure, shortened: (§2)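 In this flooded assay, 2-leaf seedlings received compound through the water layer, kept at 3 cm over the soil. Plants were held 13 days in a greenhouse and then visually compared with control pots.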
# [13] = tested on: barnyardgrass (Echinochloa crusgalli); test: as above; conditions: 250 g ai/ha, Flood, applied to paddy water, evaluated after 13 days
# Procedure, shortened: as §2
# [14] = tested on: sedge, umbrella (small-flower umbrella sedge, Cyperus difformis); test: as above; conditions: 250 g ai/ha, Flood, applied to paddy water, evaluated after 13 days
# Procedure, shortened: as §2
# rice (Oryza sativa) = test: as above; conditions: 250 g ai/ha, Flood, applied to paddy water, evaluated after 13 days
# Procedure, shortened: as §2
# [15] = tested on: horseweed (Erigeron canadensis); test: Test A postemergence application, visual injury rating 0-100
# Procedure, shortened: as §1
# [16] = tested on: barnyardgrass (Echinochloa crus-galli); test: as above
# Procedure, shortened: as §1
# [17] = tested on: ragweed (common ragweed, Ambrosia artemisiifolia); test: as above
# Procedure, shortened: as §1
# [18] = tested on: palmer (palmer amaranth, palmer pigweed, Amaranthus palmeri); test: as above
# Procedure, shortened: as §1
# [19] = tested on: green foxtail (Setaria viridis); test: as above
# Procedure, shortened: as §1
# kochia (Bassia scoparia) [20] = test: as above
# Procedure, shortened: as §1
# corn (Zea mays) [21] = test: as above
# Procedure, shortened: as §1
# [22] = tested on: wheat (Triticum aestivum); test: as above
# Procedure, shortened: as §1
# soybean (Glycine max) [23] = test: as above
# Procedure, shortened: as §1
# [24] = tested on: ryegrass, Italian (italian ryegrass, Lolium multiflorum); test: as above
# Procedure, shortened: as §1
# [25] = tested on: blackgrass (Alopecurus myosuroides); test: as above
# Procedure, shortened: as §1
# [26] = tested on: oat, wild (wild oat, Avena fatua); test: as above
# Procedure, shortened: as §1
# [27] = tested on: galium (catchweed bedstraw, Galium aparine); test: as above; conditions: Postemergence, 16 g ai/ha, greenhouse 10 days; 0 no effect, 100 complete control
# Procedure, shortened: as §1
# [28] = 62 g ai/ha, 0 = no effect, 100 = complete control
# [29] = 62 g ai/ha, postemergence, 10 days, 0 = no effect, 100 = complete control
# [30] = Postemergence, 16 g ai/ha, greenhouse 10 days, 0 no effect, 100 complete control
smiles,measurement,setting,value
COC(=O)C1=CCC(NC(=O)C2(C)CN(c3cc(Cl)cc(Cl)c3)C(=O)O2)C1 (stereo not drawn) [Compound 149],Barnyardgrass plant response rating,"[1]; 16 g ai/ha, 0 to 100 scale",60
same,Barnyardgrass plant response rating (0-100),[1]; [28],90
same,Ragweed plant response rating,"[2]; 16 g ai/ha, 0 to 100 scale",0
same,Ragweed plant response rating (0-100),[2]; [28],30
same,"Pigweed, Palmer plant response rating","[3]; 16 g ai/ha, 0 to 100 scale",90
same,"Pigweed, Palmer plant response rating (0-100)",[3]; [28],100
same,"Foxtail, Green plant response rating","[4]; 16 g ai/ha, 0 to 100 scale",30
same,"Foxtail, Green plant response rating (0-100)",[4]; [28],90
same,Kochia plant response rating,"kochia (Bassia scoparia) [5]; 16 g ai/ha, 0 to 100 scale",0
same,Kochia plant response rating (0-100),kochia (Bassia scoparia) [5]; [28],50
same,Corn plant response rating,"corn (Zea mays) [6]; 16 g ai/ha, 0 to 100 scale",0
same,Corn plant response rating (0-100),corn (Zea mays) [6]; [28],30
same,Wheat plant response rating,"[7]; 16 g ai/ha, 0 to 100 scale",20
same,Wheat plant response rating (0-100),[7]; [28],70
same,Soybean plant response rating,"soybean (Glycine max) [8]; 16 g ai/ha, 0 to 100 scale",0
same,Soybean plant response rating (0-100),soybean (Glycine max) [8]; [28],0
same,"Ryegrass, Italian plant response rating","[9]; 16 g ai/ha, 0 to 100 scale",20
same,"Ryegrass, Italian plant response rating (0-100)",[9]; [28],80
same,Blackgrass plant response rating,"[10]; 16 g ai/ha, 0 to 100 scale",0
same,Blackgrass plant response rating (0-100),[10]; [28],0
same,"Oat, Wild plant response rating","[11]; 16 g ai/ha, 0 to 100 scale",0
same,"Oat, Wild plant response rating (0-100)",[11]; [28],20
same,"Plant response rating, Ducksalad (0 to 100 scale, 0 is no effect and 100 is complete control)",[12],95
same,"Plant response rating, Barnyardgrass (0 to 100 scale, 0 is no effect and 100 is complete control)",[13],95
same,"Plant response rating, Sedge, Umbrella (0 to 100 scale, 0 is no effect and 100 is complete control)",[14],95
same,"Plant response rating, Rice (0 to 100 scale, 0 is no effect and 100 is complete control)",rice (Oryza sativa),90
same,Horseweed plant response rating (0-100),[15]; [29],70
same,Horseweed plant response rating (0 to 100 scale),[15]; [30],50
same,Barnyardgrass plant response rating (0-100),[16]; [29],100
same,Barnyardgrass plant response rating (0 to 100 scale),[16]; [30],100
same,Ragweed plant response rating (0-100),[17]; [29],50
same,Ragweed plant response rating (0 to 100 scale),[17]; [30],20
same,"Pigweed, Palmer plant response rating (0-100)",[18]; [29],90
same,"Pigweed, Palmer plant response rating (0 to 100 scale)",[18]; [30],90
same,"Foxtail, Green plant response rating (0-100)",[19]; [29],90
same,"Foxtail, Green plant response rating (0 to 100 scale)",[19]; [30],90
same,Kochia plant response rating (0-100),kochia (Bassia scoparia) [20]; [29],90
same,Kochia plant response rating (0 to 100 scale),kochia (Bassia scoparia) [20]; [30],80
same,Corn plant response rating (0-100),corn (Zea mays) [21]; [29],100
same,Corn plant response rating (0 to 100 scale),corn (Zea mays) [21]; [30],100
same,Wheat plant response rating (0-100),[22]; [29],90
same,Wheat plant response rating (0 to 100 scale),[22]; [30],80
same,Soybean plant response rating (0-100),soybean (Glycine max) [23]; [29],90
same,Soybean plant response rating (0 to 100 scale),soybean (Glycine max) [23]; [30],60
same,"Ryegrass, Italian plant response rating (0-100)",[24]; [29],80
same,"Ryegrass, Italian plant response rating (0 to 100 scale)",[24]; [30],80
same,Blackgrass plant response rating (0-100),[25]; [29],90
same,Blackgrass plant response rating (0 to 100 scale),[25]; [30],90
same,"Oat, Wild plant response rating (0-100)",[26]; [29],90
same,"Oat, Wild plant response rating (0 to 100 scale)",[26]; [30],30
same,Galium plant response rating (0 to 100 scale),[27],60

# Reference: patent US20260285850A1, “SUBSTITUTED OXAZOLIDINONES AND IMIDAZOLINONES AS HERBICIDES” (FMC CORPORATION, priority 2023, published 2026)
